Measured values published in patent US8049063B2 (Zhejiang University, priority 2005, dated 2011).

What was measured:
8077S calli = format: cell-based, rice
Text: FIG. 6. Bensulfuron-methyl selection results of Cyp81A6-transformed 8077S calli. Left: transgenic; right: non-transgenic control.
(§1) The full length sequence of candidate gene Cyp81A6 was obtained through lump-sum amplification using LA TaqTM polymerase reagent kit purchased from Takara Company. The long fragment PCR specific primer pairs (forward primer: 5′-[…]-3′ (SEQ ID NO: 40); reverse primer: 5″-[…]-3′ (SEQ ID NO: 41), synthesized by Shanghai Sangon) used in this experiment were designated at a start from 124 bp before and end with 4145 bp after BamHI enzyme digestion site located at 5′-end of Cyp81A6 gene, respectively, according to the DNA sequence publicized by indica rice genome database. According to the designing, these primers have a BstEII enzyme cutting site attached to the 3′-end of the primers, which is convenient for production of cohesive end and ligation during cloning. The amplified fragment with the total size of […] by this pair of primers is consisted of those parts: 124 bp upstream sequence of the BamHI digestion site, 1321 bp promoter sequence, 2321 bp sequence of leader region plus exon plus intron , 272 bp 3′-UTR sequence, followed by 288 bp genome sequence (including the 7 bp BstEII recognition site and 5 bp protection base). […]

[1] = tested on: Cyp81A6 transgenic 8077S plants; assay: Bentazon test of Cyp81A6 transgenic 8077S seedlings (complementation); format: in vivo, rice
Text: FIG. 7. […] Left: negative control of 8077S; middle: transgenic seedling; right: positive control of W6154S.
as §1

[2] = tested on: Cyp81A6 antisense RNA transformed Minghui 63 plants; assay: Bentazon leaf smear test of Cyp81A6 antisense RNA transformed Minghui 63 plants; format: in vivo, rice; conditions: 1250 mg/L smeared on leaves, 3 leaves/plant; antisense transgenic Minghui 63; 36 hours later
Text: Design anti-sense RNA (RNAi) sequences (see the 1939th to 2439th nucleotide sequence of SEQ ID NO.1) in according with the coding sequence of the cloned rice Cyp81A6 gene. Fuse these antisense RNA (RNAi) sequence to the rice constitutive expression promoter such as Actin1 and then insert them into the binary vectors of pAANT11 (see FIG. 16). Use this vector to transform wild-type rice such as Minghui 63 using the modified procedures of Agrobacterium-mediated transformation method. After that, use the specific primers to carry on the PCR amplification analysis of transgenic TO generation plants for molecular confirmation.

Row | SMILES | growth of non-transgenic calli on herbicide medium (8077S calli) | response of PCR-positive Cyp81A6 transformants to bentazon ([1]; 1250 mg/l, regenerated transgenic 8077S plantlets) | resistance of transgenic line carrying the entire CYP81A6 sequence ([1]; 8077S mutant genome transformed with entire CYP81A6 gene) | outcome of treated leaves and plants [2]
1 | COC(=O)c1ccccc1CS(=O)(=O)NC(=O)Nc1nc(OC)cc(OC)n1 [BSM, bensulfuron-methyl] | stop to grow |  |  | 
2 | CC(C)N1C(=O)c2ccccc2NS1(=O)=O [bentazon] |  | recovered the resistance | highly resistant | faded and died
